Measured values reported in patent US10766866B2, “Deterrents for arthropods and marine organisms” (priority 2017, dated 2020).

Assays:
[1] = molecular target: T1, human α2C adrenergic receptor (α2c-AR) (Homo sapiens, UniProt P18825); experiment: Measurement of intracellular cAMP (cAMP-Glo); format: cell-based, Homo sapien; conditions: in words; normalized to 1 μM forskolin; FIG. 8
T1 construct: expressed in transfected cells
T1 sequence (P18825 1-462): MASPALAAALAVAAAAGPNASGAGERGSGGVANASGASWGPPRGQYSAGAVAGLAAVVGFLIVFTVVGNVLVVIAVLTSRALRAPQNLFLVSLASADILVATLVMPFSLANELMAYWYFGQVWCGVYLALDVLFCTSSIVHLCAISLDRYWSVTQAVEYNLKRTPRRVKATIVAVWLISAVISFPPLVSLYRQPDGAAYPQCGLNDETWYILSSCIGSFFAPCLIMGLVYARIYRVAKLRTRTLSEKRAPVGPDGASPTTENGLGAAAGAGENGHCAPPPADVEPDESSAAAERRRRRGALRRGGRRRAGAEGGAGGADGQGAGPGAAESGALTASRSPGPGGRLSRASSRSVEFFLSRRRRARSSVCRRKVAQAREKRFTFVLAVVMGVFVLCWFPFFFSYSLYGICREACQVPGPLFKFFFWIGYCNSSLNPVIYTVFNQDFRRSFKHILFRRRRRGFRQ
From the text: (§1) Functional expression of cloned arthropod OctRs and human α2-ARs: The cDNAs for α-like OctRs from different arthropod species (e.g., Anopheles gambiae, Aedes aegypti, Periplaneta americana, Drosophila melanogaster, Ixodes scapularis, Balanus improvises) and for α2-AR subtypes from humans were individually subcloned into mammalian expression vectors. These plasmids, which harbor a resistance gene for the selection drug G418 and the cDNA sequence for the receptor of interest, were individually transfected into mammalian cells using a calcium phosphate precipitation method. G418 selection was then employed to generated stable clonal cell lines. Utilizing rapid filtration radioligand binding techniques, the cell surface density of receptor expression of the individual clonal cell lines was determined at equilibrium and those with similar high levels of expression were selected for further experiments. […] The radioligand was [3H]rauwolscine and non-specific binding was determined in the presence of 10 μM atipamezole. […] The radioactivity remaining on the filters was quantified by scintillation counting. Receptor density (Bmax) was back calculated knowing the specific activity of the radioligand and applying the equation for a square hyperbola model: Bmax=(Y·(KD+X))/X, where Y is [specifically bound radioligand] and X=[radio ligand concentration]. […]

[2] = test system: AeOctR (Aedes octopamine receptor), cloned α-like OctR; experiment: OctR activation: change in intracellular calcium (CALCIUM 6QR dye, FlexStation 3) in stably transfected mammalian cells; format: cell-based, Aedes aegypti; conditions: agonist
From the text: (§2) Functional expression of cloned arthropod OctRs and human α2-ARs: The cDNAs for α-like OctRs from different arthropod species (e.g., Anopheles gambiae, Aedes aegypti, Periplaneta americana, Drosophila melanogaster, Ixodes scapularis, Balanus improvises) and for α2-AR subtypes from humans were individually subcloned into mammalian expression vectors. These plasmids, which harbor a resistance gene for the selection drug G418 and the cDNA sequence for the receptor of interest, were individually transfected into mammalian cells using a calcium phosphate precipitation method. G418 selection was then employed to generated stable clonal cell lines. Utilizing rapid filtration radioligand binding techniques, the cell surface density of receptor expression of the individual clonal cell lines was determined at equilibrium and those with similar high levels of expression were selected for further experiments. Briefly, binding conditions were 50 mM Tris binding buffer pH 7.4 at 25° C. and an ice-cold wash buffer 10 mM Tris-HCl, pH 7.4). The radioligand was [3H]rauwolscine and non-specific binding was determined in the presence of 10 μM atipamezole. Following the addition of membranes prepared from the clonal cell lines, samples were mixed and allowed 2 hr. to reach equilibrium before rapid filtration and washing through 0.3% PEI-treated GF/C filters. The radioactivity remaining on the filters was quantified by scintillation counting. Receptor density (Bmax) was back calculated knowing the specific activity of the radioligand and applying the equation for a square hyperbola model: Bmax=(Y·(KD+X))/X, where Y is [specifically bound radioligand] and X=[radio ligand concentration]. The affinity (KD) for the radioligand for each receptor was determined in separate saturation isotherm binding experiments using the same binding conditions as describe above.
(§3) Measurement of OctR activation by measuring changes in intracellular calcium: Activation of arthropod α-like OctRs increases intracellular calcium via a Gq-coupling mechanism. This involves activation of phospholipase C leading to an increase in intracellular inositol triphosphate (IP3) which then activates IP3-gated calcium channels in the endoplasmic reticulum causing a transient rise in intracellular calcium. These changes in intracellular calcium upon OctR activation were measured by loading cells with intracellular calcium sensitive dye CALCIUM 6QR and reading the change in calcium-induced fluorescent signal over time on a FlexStation 3 microplate reader.

[3] = test system: IsTOctR (Ixodes octopamine receptor), cloned α-like OctR; experiment: as above; format: cell-based, Ixodes scapularis; conditions: agonist, read-out: IsTOctR (Ixodes octopamine receptor) EC50
From the text: as §2, §3

[4] = molecular target: T2, AgAOctR (Anopheles octopamine receptor isoform A), cloned α-like OctR (Anopheles gambiae, UniProt Q7PRZ8); experiment: as above; format: cell-based; conditions: agonist
T2 construct: Gq calcium readout
T2 sequence (Q7PRZ8 1-592): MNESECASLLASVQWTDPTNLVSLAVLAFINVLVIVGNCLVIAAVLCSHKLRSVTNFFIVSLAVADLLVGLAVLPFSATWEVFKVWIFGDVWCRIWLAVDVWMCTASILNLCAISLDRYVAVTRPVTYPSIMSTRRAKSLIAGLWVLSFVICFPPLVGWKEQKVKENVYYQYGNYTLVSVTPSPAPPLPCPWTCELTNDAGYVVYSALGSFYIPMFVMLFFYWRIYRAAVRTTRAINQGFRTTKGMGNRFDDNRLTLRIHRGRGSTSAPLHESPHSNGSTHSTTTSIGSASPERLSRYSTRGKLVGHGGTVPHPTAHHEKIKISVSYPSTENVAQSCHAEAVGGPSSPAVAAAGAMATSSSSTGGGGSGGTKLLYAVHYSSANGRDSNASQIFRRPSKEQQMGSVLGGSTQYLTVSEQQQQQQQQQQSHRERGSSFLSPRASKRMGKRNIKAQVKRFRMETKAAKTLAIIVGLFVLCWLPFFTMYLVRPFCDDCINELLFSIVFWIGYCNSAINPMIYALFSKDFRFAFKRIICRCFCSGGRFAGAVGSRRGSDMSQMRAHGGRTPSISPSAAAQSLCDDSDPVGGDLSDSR
From the text: as §2, §3

[5] = molecular target: T3, Hsα2A-AR (human α2A adrenergic receptor) (Homo sapiens, UniProt P08913); experiment: [3H]rauwolscine competition radioligand binding, membranes of clonal mammalian cell lines; conditions: 50 mM Tris pH 7.4, 25° C., 2 hr, Cheng-Prusoff
T3 construct: expressed in transfected cells; membranes
T3 sequence (P08913 whole entry): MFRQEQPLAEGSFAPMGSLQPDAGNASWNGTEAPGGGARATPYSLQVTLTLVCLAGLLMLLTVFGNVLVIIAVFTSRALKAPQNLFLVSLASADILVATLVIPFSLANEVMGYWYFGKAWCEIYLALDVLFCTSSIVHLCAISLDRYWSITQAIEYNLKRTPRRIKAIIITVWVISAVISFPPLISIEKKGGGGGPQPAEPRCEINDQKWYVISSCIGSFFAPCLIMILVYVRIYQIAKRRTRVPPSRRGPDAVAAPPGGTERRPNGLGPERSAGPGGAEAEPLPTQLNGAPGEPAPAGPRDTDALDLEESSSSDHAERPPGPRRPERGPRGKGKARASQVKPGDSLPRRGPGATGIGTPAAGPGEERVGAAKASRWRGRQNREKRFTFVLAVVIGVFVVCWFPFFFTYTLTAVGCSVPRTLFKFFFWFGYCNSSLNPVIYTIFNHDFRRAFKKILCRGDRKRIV
From the text: as §2
(§4) Measurement of compound affinities by competition radioligand binding: Affinities (Ki) for compounds were determined by [3H]rauwolscine competition binding using the same binding conditions as described above. The Ki values were calculated from IC50 values using the Cheng-Prusoff equation.

[6] = molecular target: T4, Hsα2C-AR (human α2C adrenergic receptor) (Homo sapiens, UniProt P18825); experiment: as above; conditions: 50 mM Tris pH 7.4, 25° C., 2 hr, Cheng-Prusoff
T4 construct: expressed in transfected cells
T4 sequence (P18825 1-462): T1 sequence (P18825 1-462)
From the text: as §2, §4

[7] = test system: Ixodes scapularis tick OctR (IsTOctR); experiment: OctR activation, change in intracellular calcium; format: cell-based
From the text: as §2, §3

[8] = test system: Anopheles gambiae mosquito isoform A OctR (AgAOctR); experiment: OctR activation, change in intracellular calcium; format: cell-based; conditions: for selectivity Ki(Hsα2-AR)/EC50(OctR): AgAOctR over Homo sapien α2-AR subtypes
From the text: as §2, §3

[9] = molecular target: T1, human α2C adrenergic receptor (α2c-AR); experiment: Intracellular cyclic AMP (cAMP-Glo) functional assay, stably transfected mammalian cells; format: cell-based
From the text: as §1

[10] = test system: α-like OctRs; experiment: OctR activation, change in intracellular calcium (statements on OctRs in general); format: cell-based; conditions: relative to fluorinated AZ1411
From the text: as §1

[11] = test system: α2-ARs; experiment: Functional profile at α2-ARs (preliminary studies); format: cell-based, Homo sapien
From the text: as §1

Row | SMILES | efficacy (change in intracellular cyclic AMP) [1] | potency (change in intracellular cyclic AMP) [1] | EC50 [2] [nM] | EC50 [3] [nM] | EC50 [4] [nM] | Ki [5] [nM] | Ki [6] [nM] | selectivity Ki(Hsα2-AR)/EC50(OctR) ([7]; Ixodes tick OctR over Homo sapien α2-AR subtypes) | selectivity Ki(Hsα2-AR)/EC50(OctR) [8] | EC50 [9] [nM] | potency for OctRs compared with AZ1411 [10] | potency (EC50) ([7]; in words, FIG. 9) | efficacy (full/partial agonist) ([7]; in words, FIGS. 9, 11) | efficacy (full/partial agonist) ([8]; in words, FIGS. 9-12) | potency (EC50) ([8]; in words, FIGS. 9-12) | functional mode at α2-ARs [11]
1 | C=C(c1cnc[nH]1)c1cccc(F)c1C [AZ1411] | partial agonist | low potency | 81 ± 46 | 2.9 ± 1.3 | 0.11 ± 0.058 | 494 ± 177 | 3530 ± 1590 | highly selective | highly selective | 931 | – | – | – | – | – | –
2 | C=C(c1cnc[nH]1)c1cccc(Cl)c1C [AZ1436] | – | – | – | 1.8 ± 0.83 | 0.025 ± 0.0019 | – | – | – | highly selective | – | 2-4 | potent | full agonist | full agonist | potent | likely an antagonist
